# Results published in patent US20210196714A1, “COMPOSITIONS AND METHODS FOR TREATING DISORDERS CHARACTERIZED WITH ABERRANT RAS/MAPK SIGNALING” (Duke University, priority 2018, published 2021).
# “Also recorded” adds a separate entry of the source.
# Key:
# kmt2d morphants = test: Brain cell proliferation (pHH3 immunostaining) in kmt2d morphants; format: in vivo, zebrafish; details: 100 nM, 2 dpf, listed as dmDf
# Text: Intellectual disability represents a major phenotype in KS, with some studies reporting almost 90% of patients to be affected (see, Wessels, M. W., et al. Clin Dysmorphol 11, 95-102 (2002)). […] Previous studies have shown that defects in proliferation in the developing zebrafish brain can be a proxy for neurodevelopmental and neurocognitive traits, especially in the context of microcephaly (see, Borck, G. et al. Genome Res 25, 609 (2015); Brooks, S. S. et al. Genetics 198, 723-33 (2014); O'Rawe, J. A. et al. Am J Hum Genet 97, 922-32 (2015); Wortmann, S. B. et al. Am J Hum Genet 96, 245-57 (2015)), a phenotype reported commonly in KS (see, Matsumoto, N. & Niikawa, N. Am J Med Genet C Semin Med Genet 117C, 57-65 (2003)).
# (§1) For convergence and extension (CE) phenotyping, embryos were scored as described (see, Leitch, C. C. et al. Nat Genet 40, 443-8 (2008)) at the 8-10 somite stage, and images were captured using an AZ100 microscope and NIS Elements software (Nikon). […] The distance between Meckel's (MK) and ceratohyal (CH) cartilages was measured on ventral bright field images with Image J (NIH). […] Fluorescence signal on embryo heads was imaged with the Nikon AZ100 microscope and DS-Qi1MC digital camera using […] Z-stacks to generate extended depth of focus images. Cell numbers were quantified using the ImageJ ICTN plugin (NIH). […]
# [1] = test system: kmt2d CRISPR mosaic mutants (F0); test: CE defects in kmt2d-CRISPR F0 mutants; format: in vivo, zebrafish; details: kmt2d-CRISPR F0, 100 nM; listed as dmDf
# Text: Prior and current genetic zebrafish models of KS focused on the newly discovered rap1a/rap1b genes. However, from the perspective of clinical utility, dmDf should be efficacious in kmt2d mutants, since loss of function mutations of the human ortholog account for as much as 75% of KS (see, Ng, S. B. et al. Nat Genet 42, 790-3 (2010); Li, Y. et al. Hum Genet 130, 715-24 (2011); Lu, J., Mo, G., Ling, Y. & Ji, L. Mol Med Rep 14, 3641-5 (2016); Miyake, N. et al. Am J Med Genet A 161a, 2234-43 (2013)). Therefore, experiments supplemented the testing tools by creating a kmt2d CRISPR/Cas9 mutant. A guide RNA targeting exon 4 of kmt2d induced efficient (˜99%) Cas9-mediated genome editing (FIG. 8). […]
# as §1
structure (smiles),measurement,setting,value
"CC(C)c1nc(-c2cccc(NS(=O)(=O)c3c(F)cccc3F)c2F)c(-c2ccnc(N)n2)s1 [Compound 8, desmethyl-Dabrafenib]",total number of proliferating (pHH3+) cells in brain,kmt2d morphants,significantly increases pHH3+ proliferating cells; also recorded: restored the total number of proliferating cells to wild type levels
same,CE defects,[1],ameliorates the CE defects; also recorded: ameliorated significantly
